Results: PubChem BioAssay AID330 (DTP/NCI, 2004)
Where “and” joins values, the source holds several entries; their conditions need not be identical. Equal values may be shown once. Toxic doses and inconclusive results are not listed. How the source made its calls: active means survival T/C of 150% or more; inactive means T/C below 125% in these data.

System: P388 leukemia ip, CD2F1 mice, survival T/C
Experiment: NCI In Vivo Anticancer Drug Screen. Data for tumor model P388 Leukemia (intraperitoneal) in CD2F1 (CDF1) mice
Details: endpoint: median survival time, higher = longer survival
Procedure, shortened: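 Mice carrying the transplanted tumor received test compound or vehicle. Survival was recorded in each group, and the value is the treated-group measurement divided by that of the vehicle-treated control group.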

[1] = dose: 50.0 mg/kg/injection, schedule: Q01DX005 (ip), vehicle: Klucel (hydroxypropylcellulose) (HPC)
[2] = dose: 100.0 mg/kg/injection, schedule: Q01DX005 (ip), vehicle: Klucel (hydroxypropylcellulose) (HPC)
[3] = dose: 200.0 mg/kg/injection, schedule: Q01DX005 (ip), vehicle: Klucel (hydroxypropylcellulose) (HPC)
[4] = dose: 50.0 mg/kg/injection, schedule: Q01DX009 (ip), vehicle: Klucel (hydroxypropylcellulose) (HPC)
[5] = dose: 100.0 mg/kg/injection, schedule: Q01DX009 (ip), vehicle: Klucel (hydroxypropylcellulose) (HPC)
[6] = dose: 200.0 mg/kg/injection, schedule: Q01DX009 (ip), vehicle: Klucel (hydroxypropylcellulose) (HPC)
[7] = dose: 50.0 mg/kg/injection, schedule: Q01DX005 (ip), vehicle: saline with Tween-80
[8] = dose: 100.0 mg/kg/injection, schedule: Q01DX005 (ip), vehicle: saline with Tween-80
[9] = dose: 200.0 mg/kg/injection, schedule: Q01DX005 (ip), vehicle: saline with Tween-80
[10] = dose: 60.0 mg/kg/injection, schedule: Q01DX005 (ip), vehicle: saline
[11] = dose: 120.0 mg/kg/injection, schedule: Q01DX005 (ip), vehicle: saline
[12] = dose: 240.0 mg/kg/injection, schedule: Q01DX005 (ip), vehicle: saline
[13] = dose: 100.0 mg/kg/injection, schedule: Q01DX009 (ip), vehicle: saline with Tween-80
[14] = dose: 200.0 mg/kg/injection, schedule: Q01DX009 (ip), vehicle: saline with Tween-80

Measured: T/C

NC(=O)C1C2CCC(O2)C1C(=O)O (stereo not drawn)
inactive: dose: 1.56 mg/kg/injection, schedule: Q01DX005 (ip), vehicle: Klucel (hydroxypropylcellulose) (HPC) 99 % of control | dose: 3.12 mg/kg/injection, schedule: Q01DX005 (ip), vehicle: Klucel (hydroxypropylcellulose) (HPC) 97 % of control | dose: 6.25 mg/kg/injection, schedule: Q01DX005 (ip), vehicle: Klucel (hydroxypropylcellulose) (HPC) 95 % of control

Cc1ccc(C(=O)C(C#N)=Nc2ccc(N(C)C)cc2)cc1
inactive: dose: 12.5 mg/kg/injection, schedule: Q01DX005 (ip), vehicle: Klucel (hydroxypropylcellulose) (HPC) 92 % of control | [1] 87 % of control and 91 % of control | [2] 92 % of control | [3] 99 % of control

CC(=O)OC(C(=O)OC1C[C@]2(O)C(OC(=O)c3ccccc3)C3[C@@]4(OC(C)=O)CO[C@H]4C[C@@H](OC(C)=O)[C@]3(C)C(=O)[C@@H](OC(C)=O)C(=C1C)C2(C)C)C(NC(=O)c1ccccc1)c1ccccc1 (stereo partly drawn)
inactive: dose: 5.0 mg/kg/injection, schedule: Q01DX009 (ip), vehicle: Klucel (hydroxypropylcellulose) (HPC) 99 % of control | dose: 10.0 mg/kg/injection, schedule: Q01DX009 (ip), vehicle: Klucel (hydroxypropylcellulose) (HPC) 105 % of control | dose: 20.0 mg/kg/injection, schedule: Q01DX009 (ip), vehicle: Klucel (hydroxypropylcellulose) (HPC) 100 % of control | dose: 40.0 mg/kg/injection, schedule: Q01DX009 (ip), vehicle: Klucel (hydroxypropylcellulose) (HPC) 104 % of control

COc1cc(C(c2cc3c(cc2O)OCO3)N2CCCC2)cc(OC)c1OC (stereo not drawn)
inactive: dose: 60.0 mg/kg/injection, schedule: Q01DX005 (ip), vehicle: Klucel (hydroxypropylcellulose) (HPC) 118 % of control | dose: 120.0 mg/kg/injection, schedule: Q01DX005 (ip), vehicle: Klucel (hydroxypropylcellulose) (HPC) 106 % of control | dose: 240.0 mg/kg/injection, schedule: Q01DX005 (ip), vehicle: Klucel (hydroxypropylcellulose) (HPC) 101 % of control

CCSc1ccc2c3c(cccc13)C(=O)N(CCc1ccccn1)C2=O
inactive: [4] 98 % of control | [5] 99 % of control | [6] 92 % of control

CCCCCCCCCCCCCC[N+](C)([O-])CCCCCC[N+](C)([O-])CCCCCCCCCCCCCC (stereo not drawn)
inactive: dose: 12.5 mg/kg/injection, schedule: Q01DX009 (ip), vehicle: Klucel (hydroxypropylcellulose) (HPC) 94 % of control | dose: 25.0 mg/kg/injection, schedule: Q01DX009 (ip), vehicle: Klucel (hydroxypropylcellulose) (HPC) 100 % of control | [4] 92 % of control and 93 % of control

O=C(Nc1nnc(-c2cc(=O)c3cc(Cl)ccc3o2)s1)c1ccccc1
inactive: [7] 92 % of control | [8] 87 % of control and 88 % of control | [9] 99 % of control and 89 % of control

O=C1OC(=O)C2c3ccccc3C=CC12 (stereo not drawn)
inactive: dose: 25.0 mg/kg/injection, schedule: Q01DX001 (ip), vehicle: saline with Tween-80 98 % of control | dose: 50.0 mg/kg/injection, schedule: Q01DX001 (ip), vehicle: saline with Tween-80 98 % of control | dose: 100.0 mg/kg/injection, schedule: Q01DX001 (ip), vehicle: saline with Tween-80 104 % of control | dose: 200.0 mg/kg/injection, schedule: Q01DX001 (ip), vehicle: saline with Tween-80 120 % of control | dose: 400.0 mg/kg/injection, schedule: Q01DX001 (ip), vehicle: saline with Tween-80 113 % of control

O=CNC(Cc1ccccc1)c1ccc(OCc2ccccc2)cc1 (stereo not drawn)
inactive: [1] 98 % of control | [2] 92 % of control | [3] 87 % of control

O=c1oc2ccccc2cc1-c1ccc(Br)c2ccccc12
inactive: [4] 93 % of control | [5] 100 % of control | [6] 95 % of control

CN1CCO[Si](C)(C)C[Si](C)(C)OCC1
inactive: [10] 103 % of control | [11] 102 % of control | [12] 105 % of control

COC(=O)C1(CC(=O)c2ccc(OC)cc2)NC(=S)NC(=O)C1C#N (stereo not drawn)
inactive: [10] 100 % of control | [11] 98 % of control | [12] 86 % of control

CN(C)CCN(C)C
inactive: [13] 100 % of control | [14] 95 % of control

COC(=O)C12OCC34C(OC(=O)C(OC(=O)C=C(C)C)C13)C(OC(C)=O)C1C(C)=CC(=O)CC1(C)C4C(O)C2O (stereo not drawn) (tested in a mixture with another compound)
inactive: dose: 13.0 micrograms/kg/injection, schedule: Q01DX009 (ip), vehicle: saline + alcohol 96 % of control | dose: 25.0 micrograms/kg/injection, schedule: Q01DX009 (ip), vehicle: saline + alcohol 97 % of control | dose: 50.0 micrograms/kg/injection, schedule: Q01DX009 (ip), vehicle: saline + alcohol 100 % of control | dose: 100.0 micrograms/kg/injection, schedule: Q01DX009 (ip), vehicle: saline + alcohol 101 % of control | dose: 190.0 micrograms/kg/injection, schedule: Q01DX009 (ip), vehicle: saline + alcohol 102 % of control | dose: 380.0 micrograms/kg/injection, schedule: Q01DX009 (ip), vehicle: saline + alcohol 102 % of control | dose: 750.0 micrograms/kg/injection, schedule: Q01DX009 (ip), vehicle: saline + alcohol 106 % of control

O=C(O)C1=C(C=C2CCCCC2)OCCC1
inactive: dose: 50.0 mg/kg/injection, schedule: Q01DX009 (ip), vehicle: saline with Tween-80 88 % of control | [13] 92 % of control | [14] 95 % of control

O=Nc1ccc(NO)cc1
inactive: dose: 25.0 mg/kg/injection, schedule: Q04DX003 (ip), vehicle: Klucel (hydroxypropylcellulose) (HPC) 110 % of control | dose: 50.0 mg/kg/injection, schedule: Q04DX003 (ip), vehicle: Klucel (hydroxypropylcellulose) (HPC) 108 % of control | dose: 100.0 mg/kg/injection, schedule: Q04DX003 (ip), vehicle: Klucel (hydroxypropylcellulose) (HPC) 103 % of control | dose: 200.0 mg/kg/injection, schedule: Q04DX003 (ip), vehicle: Klucel (hydroxypropylcellulose) (HPC) 110 % of control | dose: 400.0 mg/kg/injection, schedule: Q04DX003 (ip), vehicle: Klucel (hydroxypropylcellulose) (HPC) 88 % of control

CCCCC/C=C/C(=O)OC
inactive: dose: 100.0 mg/kg/injection, schedule: Q04DX002 (ip), vehicle: saline with Tween-80 100 % of control | dose: 200.0 mg/kg/injection, schedule: Q04DX002 (ip), vehicle: saline with Tween-80 100 % of control | dose: 400.0 mg/kg/injection, schedule: Q04DX002 (ip), vehicle: saline with Tween-80 100 % of control

CCC(C)NS(=O)(=O)c1ccccc1C(=O)OC (stereo not drawn)
inactive: [1] 99 % of control | [2] 99 % of control | [3] 97 % of control

O=C(O)COc1cc(Cl)c(Cl)cc1Cl
inactive: dose: 6.25 mg/kg/injection, schedule: Q01DX005 (ip), vehicle: saline with Tween-80 98 % of control | dose: 12.5 mg/kg/injection, schedule: Q01DX005 (ip), vehicle: saline with Tween-80 100 % of control | dose: 25.0 mg/kg/injection, schedule: Q01DX005 (ip), vehicle: saline with Tween-80 98 % of control | [7] 98 % of control | [8] 106 % of control | [9] 97 % of control

CCN(CC)Cc1c(O)ccc2c3c(c(=O)oc12)CCCC3
inactive: dose: 8.0 mg/kg/injection, schedule: Q01DX009 (ip), vehicle: Klucel (hydroxypropylcellulose) (HPC) 101 % of control | dose: 16.0 mg/kg/injection, schedule: Q01DX009 (ip), vehicle: Klucel (hydroxypropylcellulose) (HPC) 102 % of control | dose: 32.0 mg/kg/injection, schedule: Q01DX009 (ip), vehicle: Klucel (hydroxypropylcellulose) (HPC) 101 % of control

C/C=C/N1C(=O)C2C=CC1C(C(=O)OC)=C2C(=O)OC (stereo not drawn)
inactive: dose: 100.0 mg/kg/injection, schedule: Q01DX001 (ip), vehicle: saline 100 % of control | dose: 200.0 mg/kg/injection, schedule: Q01DX001 (ip), vehicle: saline 99 % of control | dose: 400.0 mg/kg/injection, schedule: Q01DX001 (ip), vehicle: saline 94 % of control

COc1cc(C[C@H]2[C@H]([C@H](O)c3ccc4c(c3)OCO4)C(=O)O[C@@H]2CO)cc(OC)c1OC
inactive: dose: 5.0 mg/kg/injection, schedule: Q04DX002 (ip), vehicle: saline with Tween-80 105 % of control | dose: 10.0 mg/kg/injection, schedule: Q04DX002 (ip), vehicle: saline with Tween-80 102 % of control | dose: 20.0 mg/kg/injection, schedule: Q04DX002 (ip), vehicle: saline with Tween-80 102 % of control
